Entries after “also recorded” stand apart in the source; their conditions may differ.
Assays:
[1] = tested on: quisqualate-induced toxicity in primary cerebral cortical cell cultures; assay: Protection of cortical neurons in culture from quisqualate-induced toxicity; format: cell-based; details: Rattus norvegicus, Cortical neurone; 10 μM compound; quisqualate 500 μM; read-out: % of cells rescued from quisqualate-induced toxicity
Protocol: The neuroprotective effects of the compounds of the invention were tested on neurons exposed to various excitotoxins in culture. The compounds tested included HU-259, HU-260, HU-270 and HU-271, which were all shown to have NMDA antagonist properties in mice (Example 13).
The test drugs were examined for their ability to protect neurons in culture from toxic effects of agonists of the different glutamate receptor subtypes (agonists of ionotropic and/or metabotropic glutamate receptors), e.g. NMDA, AMPA, kainate and quisqualate. The culture conditions and assay conditions were all performed as described in Eshhar et al. (NeuroReport 5, No. 3, 1993). In brief, primary cerebral cortical cell cultures were prepared from 18-20 day old rat fetuses by enzymatic dissociation. Resulting cell suspensions were plated on confluent cortical glial cell feder layer (prepared 2 weeks earlier by a similar method). […] Cell viability was determined morphologically following neuron specific enolase immunostaining of cells using the ABC biotin-avidin complex method, and determined quantitatively by measuring the extent of mitochondrial activity in living cells using the XTT-based assay. […] The density of color formation (O.D.), which is proportional to mitochondrial activity, was measured by a plate ELISA reader. The extent of neuroprotectant activity is expressed as % of cells rescued by the drugs tested.

[2] = tested on: intraocular pressure (IOP); assay: Ocular hypotensive activity (intraocular pressure) in albino rabbits; format: in vivo, albino rabbit; details: for Max ΔIOP: ** drug vs. vehicle P < 0.01
Protocol: Bicyclic compounds of the present invention were also tested for IOP lowering effects.
(§1) Sci., 82, 1069-1079 (1993).
The phospholipids and HU-259 were dissolved in the stabilized oily phase. The other excipients were dissolved in the aqueous phase. Both phases were heated separately to 70° C. and dispersed by a magnetic stirrer. Emulsification was completed using a "high speed mixer" for 5 min at 85° C. The resulting emulsion was cooled rapidly below 20° C. and homogenized using a two-stage homogenizing valve assembly (Gaulin Homogenizer, APV Gaulin, Hilversum, The Netherlands) for 5 min. All the manufacturing procedures were carried out under aseptic conditions and a nitrogen atmosphere. The pH was adjusted to 7.4 using a sodium hydroxide solution (10%). The final fine emulsion was filtered to achieve sterility and stored in ampoules. A typical formulation (%, w/w) consisted of the following: HU-259, 0.2%; oily phase, 20.0%; purified fractionated egg phospholipids, 1.2%; nonionic emulsifier, 2%; glycerin, 2.25%; α-tocopherol, 0.02%; methyl and butyl p-hydroxy- benzoic ester, 0.3 and 0.075%, respectively; and water for injection, to 100.0 g. The control emulsion vehicle was prepared using identical experimental conditions but without drug.
IOP was measured by using a pneumatonometer (Digilab T30). Pressure readings were calibrated for verification every 6 h. One drop (50 μl) of local anesthetic (Benoxinate HCl, 0.4% Fischer [Isr] diluted 1:3 with sterile saline) was instilled into each eye prior to IOP measurements.

[3] = tested on: cerebral ischemia in gerbils; assay: Neurobehavioral scores in gerbils after bilateral common carotid artery occlusion; format: in vivo, Mongolian gerbils
From the text: Inhibition of ischemic neuronal damage in gerbils: Temporary blockage of the blood supply to the gerbil brain by surgical ligation of the two major arteries (common carotids) results in transient global forebrain ischemia. Temporary global ischemia produces a delayed, selective degeneration of neurons in the hippocampus, a brain structure essential for memory formation. The ability of various compounds to prevent hippocampal cell loss and the attendant memory deficits is considered a measure of their potency as neuroprotectants in ischemic conditions.
The data are presented as average differential scores between the initial score obtained 5 hrs post-ischemia and that obtained on each successive day. The drug was administered intravenously 30 min post-ischemia.
Mongolian gerbils (male), 65-70 gr (Tumblebrook Farm) underwent the ischemic procedure while anaesthetised with equithisine.
Common carotid arteries (CCA) were isolated and 3-0 silk suture material was positioned loosely round them. The tips of each loop were tied together, and the suture material was buried beside the trachea. The ventral neck incision was then sutured. In the following day, they were lightly anaesthetised with ether, the neck skin wounds were opened and both CCA were occluded for 10 minutes using small artery clips. During the ischemia and until the animals recovered (regaining righting reflexes), they were maintained in a warm state (36.5°-37.5° C. rectal temperature). Thirty minutes following onset of ischemia, animals were reanaesthetised (ether) and the appropriate drug was administered I.V. via the femoral vein.
Clinical evaluation. […] This was done every 24 hours, for the entire 96-hour period. […]
Statistics. Neuroclinical appearance was analyzed using Wilcoxon Rank Sum Test. The histopathological evaluation was analyzed using One-Way ANOVA followed by Duncan's Test.
Gerbils were scored for their clinical symptoms following the ischemic insult according to the system described by Rudolphi et al. (Table 4). Each animal was evaluated daily over 4 consecutive days (Day 1 being the day of CCA occlusion). […]

GABA receptors = assay: Effect on GABA responses in oocytes; format: biochemical, rat
AMPA/kainate receptors = assay: Effect on kainate responses in oocytes; format: biochemical, rat
[4] = tested on: voltage-dependent P-type calcium channels; assay: Inhibition of voltage-dependent P-type calcium channels expressed in oocytes; format: biochemical, rat
[5] = Lipophilicity / solubility (statement); format: physicochemical
Protocol: as §1
Several NMDA receptor blockers were tested. These compounds have […] and have to be dissolved in 100% dimethyl sulfoxide (DMSO) and diluted for use in ND-96 that contained 1% DMSO. Therefore, the effect of 1% DMSO on the response to 10^-4 M NMDA and 5×10^-6 M glycine was examined. DMSO had no effect on NMDA response in three different cells.

SMILES | inhibition at 10 µM [1] | AUC (from instillation of treatment until return to baseline IOP) ([2]; contralateral eye) | contralateral eye pressure lowered by ([2]; contralateral eye, single dose application) | Max ΔIOP ([2]; contralateral eye) | time of maximal ocular hypotensive effect ([2]; post-application) | time at which pressure returned to baseline level ([2]; post-treatment) | duration of statistically significant reduction in IOP compared to vehicle ([2]; single dose 30 microliter 0.2% emulsion) | AUC (from instillation of treatment until return to baseline IOP) ([2]; treated eye) | Max ΔIOP ([2]; treated eye, single dose 0.2% emulsion) | Pressure dropped by (maximal ocular hypotensive effect) ([2]; treated right eye, 3 h post-application, P<0.01) | neurobehavioral scores / clinical symptoms ([3]; 8 mg/kg i.v. 30 min post-ischemia) | animals showing no signs ([3]; three days post-ischemia) | animals showing only mild signs ([3]; three days post-ischemia) | effect on GABA responses (GABA receptors) | effect on kainate responses (AMPA/kainate receptors) | inhibition of activity of voltage-dependent P-type calcium channels [4] | lipophilicity [5]
CCCCCCC(C)(C)c1cc(OC(C)=O)c([C@H]2C=C(C(=O)NCCO)[C@H]3C[C@@H]2C3(C)C)c(OC(C)=O)c1 [HU-271] | 37% | – | – | – | – | – | – | – | – | – | – | – | – | – | – | – | –
CCCCCCC(C)(C)c1cc(OC(C)=O)c([C@H]2C=C(C(=O)O)[C@H]3C[C@@H]2C3(C)C)c(OC(C)=O)c1 [(+)-4-[4-DMH-2,6 diacetoxyphenyl]-2-carboxy-6,6-dimethylbicyclo[3.1.1]hept-2-en] | – | -7.8 ± 8.1 mmHg × hrs | 2.5±0.9 mmHg | -2.5 ± 0.9 mmHg | 3 h | 7 h | over five hours | -10.9 ± 10.9 mmHg × hrs | -3.2 ± 0.7 mmHg | 3.2±0.7 mmHg | improvement in neurobehavioral scores; also recorded: statistically significant improvement compared to controls | 90% | 10% | no effect | no effect | did not inhibit | very lipophilic

Source: patent US5434295A (priority 1994, dated 1995)
